Entries after “also recorded” stand apart in the source; their conditions may differ. Where two headings read alike, the source gives them in different places. Where only a bound is given, the exact number is not on record here.

Series [1] in a line: Study 3 safety assessments (adverse events). Particulars: efavirenz alone, delamanid alone, and delamanid plus efavirenz. Format: in vivo, human (healthy subjects).
Series [2] can be described thus: Study 3: multiple-dose drug-drug interaction pharmacokinetics, delamanid with efavirenz. Particulars: for Cmax / AUC: human, po; for AUC: Delamanid AUCτ.
Series [3] in a line: clinical. Particulars: human, in vivo, po; for AUC: Delamanid AUCτ.
Series [4] in a line: Study 2: multiple-dose drug-drug interaction pharmacokinetics, delamanid with tenofovir or Kaletra (lopinavir/ritonavir). Particulars: for Equivalence outcome for steady-state exposure of coadministered drug: coadministered with delamanid.
Series [5] can be described thus: clinical. Particulars: human, in vivo, po; for Tmax: Delamanid Tmax.
A short description of series [6]: Study 1: multiple-dose drug-drug interaction pharmacokinetics, delamanid with ethambutol plus Rifater. Particulars: for AUC / Cmax: human, plasma, po, ethambutol 1100 mg + Rifater once daily, mean ± SD; for AUC: AUCτ of coadministered drug; for Cmax: Cmax of coadministered drug.
Series [7] is described as follows: Study 2 safety assessments (adverse events). Format: in vivo, human (healthy subjects). Particulars: combinations of delamanid with either tenofovir or lopinavir and ritonavir.
The conditions of series [8]: human, in vivo.
The conditions of series [9]: in vivo.
For series [10] the following is noted: Study 1; multiple once-daily oral doses of 200 mg delamanid alone and in combination with ethambutol and rifampin/isoniazid/pyrazinamide.
For series [11], the system named is MDR-TB. Particulars: cited from earlier work.
Series [12] relates to CYP enzymes. More on the design: method as in PMID 17132069. Particulars: cited from earlier work.
Where [13] appears, read: Cmax of coadministered drug, with DLM.
[14] abbreviates: with DLM, day 15, with delamanid 200 mg once daily.
The mark [15] stands for this setting: ethambutol-Rifater plus delamanid versus ethambutol-Rifater alone.
[16] abbreviates: without DLM, day 15, without delamanid.
The mark [17] stands for this setting: delamanid plus optimized background regimen for ≤2 months.

As to `O=C1Nc2ccc(Cl)cc2[C@@](C#CC2CC2)(C(F)(F)F)O1` [Efavirenz], the Tolerability result in series [1] is given as “well tolerated”. The “Effect of delamanid on efavirenz plasma concentrations/exposure” value in series [2] is “not affected; also recorded: did not affect”. Further, the “AUCτ of coadministered drug, without DLM” value in [2] (efavirenz 600 mg once daily in the evening for 10 days, without delamanid, mean ± SD) is recorded as 84.7 ± 37.8 (14) h·µg/ml. Moreover, the Cmax in series [2] (plasma, 600 mg, Cmax of coadministered drug, with DLM, efavirenz 600 mg once daily in the evening for 10 days, with delamanid 100 mg twice daily, mean ± SD) was 5810 ± 3030 ng/mL; in [2] (plasma, 600 mg, Cmax of coadministered drug, without DLM, efavirenz 600 mg once daily in the evening for 10 days, without delamanid, mean ± SD), 5950 ± 1670 ng/mL.

Consider `CC(C)c1nc(CN(C)C(=O)N[C@H](C(=O)N[C@@H](Cc2ccccc2)C[C@H](O)[C@H](Cc2ccccc2)NC(=O)OCc2cncs2)C(C)C)cs1` [Ritonavir], for which, in series [3] (setting [13]), the Cmax is 1270 ng/mL. In addition, in [4], the “Effect of delamanid on exposure of coadministered drug” value (“Effect … of coadministered drug” for short) was “not affected” and the “Equivalence outcome for steady-state exposure of coadministered drug” value (from here on “Equivalence outcome … of coadministered drug”) is “suggested”.

For the molecule `Cc1cccc(C)c1OCC(=O)N[C@@H](Cc1ccccc1)[C@@H](O)C[C@H](Cc1ccccc1)NC(=O)[C@H](C(C)C)N1CCCNC1=O` [Lopinavir], in series [4], the “Effect … of coadministered drug” value is recorded as “not affected” and the “Equivalence outcome … of coadministered drug” value is “equivalence was documented”. The “Cmax of coadministered drug, without DLM” value in [4] (tenofovir 300 mg once daily or lopinavir 400 mg/ritonavir 100 mg twice daily, day 14, without delamanid, mean ± SD) is recorded as 12.9 ± 3.17 (11) μg/ml.

Consider `C[C@H](Cn1cnc2c(N)ncnc21)OCP(=O)(O)O` [Tenofovir], for which the Cmax in [3] (setting [13]) was found to be 294 ng/mL. In addition, in series [4], the “Effect … of coadministered drug” value was “not affected” and the “Equivalence outcome … of coadministered drug” value is “suggested”. Also, the “AUCτ of coadministered drug, with DLM” value in [4] (tenofovir 300 mg once daily or lopinavir 400 mg/ritonavir 100 mg twice daily, day 14, with delamanid 100 mg twice daily, mean ± SD) is reported as 2.850 ± 0.644 (13) h·µg/ml.

Take `NNC(=O)c1ccncc1` [Isoniazid]: in [5] (AUCτ of coadministered drug, without DLM, Study 1, ethambutol 1100 mg + Rifater once daily, day 15, without delamanid, mean ± SD), the AUC came to 20000 ± 8000 ng·h/mL. Also, in series [6], the “Isoniazid concentrations in slow acetylators versus intermediate/rapid acetylators (NAT2 genotype)” value is reported as around 2 fold. In addition, in series [6] (setting [14]), the AUC amounted to 12100 ± 6900 ng·h/mL and the Cmax worked out at 4620 ± 980 ng/mL.

Turning to `CC[C@@H](CO)NCCN[C@@H](CC)CO` [Ethambutol], in [6] (setting [15]), the “Higher AUCτ with delamanid coadministration” value is listed as “approximately 25%” and the “Higher Cmax with delamanid coadministration” value is on record as “approximately 25%”. Further, in series [6] (setting [14]), the AUC turned out to be 22400 ± 4770 ng·h/mL and the Cmax was determined as 4450 ± 820 ng/mL. In addition, the exposure (AUC) in series [6] (setting [16]) was determined as 18200 ± 3210 ng·h/mL.

As to `C[C@]1(COc2ccc(N3CCC(Oc4ccc(OC(F)(F)F)cc4)CC3)cc2)Cn2cc([N+](=O)[O-])nc2O1` [Delamanid], the Tolerability result in [7], in [1] and in series [10] was “well tolerated” each time. Besides, the “Delamanid concentrations reached steady state by day” value in series [8] is at most 15 days. Moreover, the “Lower delamanid AUCτ on coadministration with ethambutol plus Rifater” value in series [8] worked out at 47%. The “Lower delamanid Cmax on coadministration with ethambutol plus Rifater” value in series [8] is on record as 42%. Besides, the “Delamanid concentrations reached steady-state by day” value in [9] (human) was at most 14 days. Further, the “Delamanid AUCτ” value in series [9] (human, po, 100 mg) is 5,830 ± 1,660 ng·h/ml. Besides, the “Delamanid Cmax” value in [9] (human, po, 100 mg) is 734 ± 196 ng/mL. Moreover, the “Effect of tenofovir coadministration on delamanid PK/systemic exposure” value in series [9] is reported as “did not affect”. Besides, the “Equivalence outcome for steady-state exposure of delamanid” value in [9] was “documented”. Moreover, the “Improvement of 2-month sputum culture conversion” value in series [11] (MDR-TB patients, delamanid + optimized background regimen for 2 months compared to placebo + optimized background regimen) is reported as “approximately 50%”. Also, the Favorable treatment outcomes in [11] (setting [17]) is 55%; in series [11] (delamanid plus optimized background regimen for ≥6 months, P < 0.001), 74.5%. In addition, the Mortality is on record as 12.0% in [11] (setting [17]) and 2.9% in [11] (delamanid plus optimized background regimen for ≥6 months, P = 0.001). For the same molecule, the “Effects on CYP activities” value in [12] (in vitro) is given as “neither stimulatory nor inhibitory effects”. Moreover, the “Metabolism by CYP enzymes” value in series [12] (incubation of delamanid with liver microsomes, metabolites minimally quantifiable) is recorded as “not metabolized by CYP enzymes”. Also, the AUC amounted to 3110 ng·h/mL in series [5] (200 mg, Delamanid AUCτ); 5950 ng·h/mL in series [5] (200 mg, Delamanid AUCτ, Study 1, DLM + PLC, delamanid 200 mg once daily, day 15, plasma, mean ± SD); 4510 ng·h/mL in series [3] (100 mg); 4700 ng·h/mL in series [3] (100 mg, Study 2, DLM alone, delamanid 100 mg twice daily, day 14, plasma, mean ± SD); 4240 ng·h/mL in [2] (in vivo, 100 mg, DLM + EFV (efavirenz 600 mg once daily for 10 days), delamanid 100 mg twice daily, day 17 evening dose, mean ± SD); 4380 ng·h/mL in [2] (in vivo, 100 mg, DLM alone, delamanid 100 mg twice daily, day 7 evening dose, mean ± SD). Moreover, the Cmax in series [5] (200 mg, Delamanid Cmax) turned out to be 270 ± 38.9 ng/mL; in series [5] (200 mg, Delamanid Cmax, Study 1, DLM + PLC, delamanid 200 mg once daily, day 15, plasma, mean ± SD) it was 476 ± 119 ng/mL; in series [3] (100 mg, Delamanid Cmax) it was 518 ± 114 ng/mL; in series [3] (100 mg, Delamanid Cmax, Study 2, DLM alone, delamanid 100 mg twice daily, day 14, plasma, mean ± SD) it was 617 ± 135 ng/mL; in series [2] (in vivo, 100 mg, Delamanid Cmax, DLM + EFV (efavirenz 600 mg once daily for 10 days), delamanid 100 mg twice daily, day 17 evening dose), 394 ng/mL; in series [2] (in vivo, 100 mg, Delamanid Cmax, DLM alone, delamanid 100 mg twice daily, day 7 evening dose), 391 ng/mL. The Tmax worked out at 4.06 h in [5] (200 mg); 4 h in series [5] (200 mg, Study 1, DLM + PLC, delamanid 200 mg once daily, day 15, plasma, median (min-max)); 4 h in series [3] (100 mg). Besides, the “Effect of efavirenz coadministration on delamanid steady-state exposure/PK” value in series [2] was “did not significantly affect”. The “Delamanid Tmax” value in series [2] (DLM alone, delamanid 100 mg twice daily, day 7 evening dose, median (min-max)) is 4.00 (2.00–6.00) h. In addition, the “Effect of CYP2C9 genotype on delamanid PK” value in series [6] (unpublished results) is given as “no effect”. In addition, the “Equivalence outcome for delamanid exposure” value in [4] (after lopinavir/ritonavir coadministration) is reported as “Equivalence was suggested”.

Turning to `NC(=O)c1cnccn1` [Pyrazinamide], the Cmax in [5] (Cmax of coadministered drug, without DLM) was 49700 ng/mL; in series [6] (setting [14]), 51400 ± 9060 ng/mL. Further, the AUC in series [6] (setting [14]) was determined as 533000 ± 141000 ng·h/mL; in series [6] (setting [16]) it was 488000 ± 90300 ng·h/mL.

In the case of `CO[C@H]1/C=C/O[C@@]2(C)Oc3c(C)c(O)c4c(O)c(c(/C=N/N5CCN(C)CC5)c(O)c4c3C2=O)NC(=O)/C(C)=C\C=C\[C@H](C)[C@H](O)[C@@H](C)[C@@H](O)[C@@H](C)[C@H](OC(C)=O)[C@@H]1C` [Rifampin], the AUC in [5] (AUCτ of coadministered drug, with DLM) came to 55900 ng·h/mL; in [5] (AUCτ of coadministered drug, without DLM), 48200 ng·h/mL. For the same molecule, in series [5] (setting [13]), the Cmax is 13200 ng/mL.

On to `C[C@]1(COc2ccc(N3CCC(Oc4ccc(OC(F)(F)F)cc4)CC3)cc2)CN=C(N)O1` [DM-6705], for which the “Lower metabolite AUCτ when delamanid coadministered with ethambutol-Rifater” value in [6] (based on the AUC, versus delamanid alone) lay in the range of 30 to 50%. In addition, the “Higher exposure on coadministration of lopinavir/ritonavir (Kaletra) with delamanid” value in [4] (delamanid and metabolites, unpublished results for metabolites) is “approximately 25%”.

(Values after article PMC5038266 (Antimicrobial Agents and Chemotherapy, 2016).)
